Assay results reported in PMC5513865 (British Journal of Pharmacology, 2017).
Several values for one entry are separate records, joined by “and”; a condition that tells them apart may be missing. Equal values may be shown once. Where a name gives a salt, the structure may show the parent alone.

How the values were obtained:
C57BL/6J wild-type mice [1] = settings: mouse, in vivo
mice = test system: mice; set-up: method as in Spetea et al., 2012; settings: s.c., ref Spetea et al., 2012; cited from earlier work
[2] = test system: μ receptor gene-disrupted 'knockout' (μ-KO) mice; settings: mouse, in vivo
C57BL/6J wild-type mice [3] = settings: mouse, in vivo; remark: listed apart in the source
C57BL/6J wild-type mice [4] = test: Rotorod assay to determine locomotor activity; assay type: in vivo, mouse; settings: i.c.v., HS665 10 nmol, HS666 30 nmol (ED90); 10-60 min
human NOP receptor = biological target: T1, human NOP receptor (Homo sapiens, UniProt P41146); test: [3H]-N/OFQ NOP receptor binding assay, CHO-hNOP membranes; settings: up to a concentration of 10 μM
T1 construct: expressed in transfected cells

human κ receptor [5] = test system: human κ receptor
human μ receptor = biological target: T2, human μ receptor (Homo sapiens, UniProt P35372); test: [35S]-GTPγS binding assay, CHO-hμ membranes; assay type: biochemical; settings: at concentrations up to 10 μM
T2 construct: expressed in transfected cells

human κ receptor [6] = biological target: T3, human κ receptor (Homo sapiens, UniProt P41145); test: cell-based; assay type: cell-based; set-up: host or cells: U2OS (U2OS–hκ receptor–β‐arrestin2 cells), PathHunter eXpress
δ receptor = biological target: δ receptor; set-up: method as in Spetea et al., 2012; settings: ref Spetea et al., 2012; read-out: binding affinity for the δ receptor; cited from earlier work
human κ receptor [7] = biological target: T3, human κ receptor; test: biochemical; assay type: biochemical; set-up: expressed in transfected cells
μ receptor = biological target: μ receptor; set-up: method as in Spetea et al., 2012; settings: ref Spetea et al., 2012; read-out: binding affinity (Ki) for the μ receptor; cited from earlier work
[8] = test system: κ receptor gene-disrupted 'knockout' (κ-KO) mice; settings: mouse, in vivo
human κ receptor [9] = biological target: human κ receptor; set-up: method as in Spetea et al., 2012; settings: ref Spetea et al., 2012, read-out: binding affinity (Ki) for the κ receptor; cited from earlier work
C57BL/6J wild-type mice [10] = test system: C57BL/6J wild-type mice; set-up: method as in Aldrich et al., 2014; settings: i.c.v.; ref Aldrich et al., 2014; cited from earlier work

T3 sequence (P41145 whole entry): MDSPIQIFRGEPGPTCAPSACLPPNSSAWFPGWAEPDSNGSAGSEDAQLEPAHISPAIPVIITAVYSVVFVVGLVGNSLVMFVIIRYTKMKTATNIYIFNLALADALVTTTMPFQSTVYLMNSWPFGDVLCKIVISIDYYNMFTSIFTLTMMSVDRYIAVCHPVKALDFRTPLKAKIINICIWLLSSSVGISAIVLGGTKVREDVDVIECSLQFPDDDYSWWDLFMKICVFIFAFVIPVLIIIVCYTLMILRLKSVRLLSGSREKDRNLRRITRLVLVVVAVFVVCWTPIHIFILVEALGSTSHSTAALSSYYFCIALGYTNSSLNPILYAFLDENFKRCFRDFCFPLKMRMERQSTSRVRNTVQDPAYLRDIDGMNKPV
T2 sequence (P35372 whole entry): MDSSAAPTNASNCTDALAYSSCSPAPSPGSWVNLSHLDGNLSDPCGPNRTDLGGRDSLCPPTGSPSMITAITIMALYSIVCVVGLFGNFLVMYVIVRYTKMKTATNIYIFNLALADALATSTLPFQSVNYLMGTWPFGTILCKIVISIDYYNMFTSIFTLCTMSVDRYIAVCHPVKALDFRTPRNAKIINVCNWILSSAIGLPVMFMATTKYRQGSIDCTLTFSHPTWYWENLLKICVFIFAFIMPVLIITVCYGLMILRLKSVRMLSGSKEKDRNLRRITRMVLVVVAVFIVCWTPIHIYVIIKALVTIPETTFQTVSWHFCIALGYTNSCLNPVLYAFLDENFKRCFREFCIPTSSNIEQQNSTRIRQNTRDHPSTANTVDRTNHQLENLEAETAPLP
T1 sequence (P41146 whole entry): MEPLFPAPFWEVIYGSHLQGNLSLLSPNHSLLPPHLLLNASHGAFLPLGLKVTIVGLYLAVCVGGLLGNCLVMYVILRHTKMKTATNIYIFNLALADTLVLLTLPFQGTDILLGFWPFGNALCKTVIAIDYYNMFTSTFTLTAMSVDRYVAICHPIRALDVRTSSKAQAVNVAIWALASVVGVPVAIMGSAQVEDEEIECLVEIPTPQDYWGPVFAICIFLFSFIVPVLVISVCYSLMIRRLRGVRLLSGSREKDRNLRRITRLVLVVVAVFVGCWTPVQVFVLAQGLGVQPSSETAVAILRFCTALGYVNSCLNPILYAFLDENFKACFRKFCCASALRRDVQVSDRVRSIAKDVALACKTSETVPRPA

Row | SMILES | % antinociception (C57BL/6J wild-type mice [1]) [%] | antinociceptive activity in μ-KO mice compared with wild-type [2] | conditioned place preference or aversion (C57BL/6J wild-type mice [3]) | effect on motor performance (latency to fall) (C57BL/6J wild-type mice [4]) | affinity for the NOP receptor (human NOP receptor) | bias factor (G protein over β-arrestin2) (human κ receptor [5]) | G protein activation (agonist activity) at the μ receptor (human μ receptor) | inhibition of U69,593-stimulated [35S]-GTPγS coupling (human κ receptor [7]) | also measured
1 | Oc1cccc(CCN(CCc2ccccc2)CC2CCC2)c1 [HS665] | 1.97 ± 1.18 | not statistically altered | significant place aversion | did not significantly impact motor performance | no significant affinity | 389 | no agonist activity | – | antinociceptive ED50 and 95% C.I. (C57BL/6J wild-type mice [1]): 3.99 (3.14 – 5.33) nmol and 4.74 (3.72 – 6.41) nmol and 3.74 (2.98–4.78) nmol and 3.74 nmol; κ receptor-mediated antinociceptive effects in the writhing test (mice): comparable with U50,488
2 | Oc1cccc(CCN(CCc2ccccc2)CC2CC2)c1 [HS666] | 1.00 ± 0.48 | not statistically altered | neither significant preference nor aversion | did not significantly impact motor performance | no significant affinity | 62 | no agonist activity | partially blocks | EC50 (human κ receptor [6]): 0.449 ± 0.056 µM; log(τ/KA) β-arrestin2 (human κ receptor [6]): 3.52 ± 0.02; Emax (human κ receptor [6]; read-out: β-arrestin2 recruitment Emax): 24 ± 1%; Ki (δ receptor): > 10 µM; EC50 (human κ receptor [7]): 0.0357 ± 0.006 µM; agonist-stimulated [35S]-GTPγS binding in the presence of nor-BNI (human κ receptor [7]): significantly antagonized; log(τ/KA) G protein (human κ receptor [7]): 5.73 ± 0.29; Emax (human κ receptor [7]; read-out: G protein coupling Emax): 50 ± 4%; Ki (μ receptor): 0.826 µM; antinociceptive activity in κ-KO mice compared with wild-type [8]: no antinociceptive activity; Ki (human κ receptor [9]): 0.0059 µM; fold decrease in potency, [35S]-GTPγS assay versus PathHunter assay (human κ receptor [5]): 13 fold; ΔΔlog(τ/KA) G protein - β-arrestin2 (human κ receptor [5]): 1.79
3 | CN1CC[C@]23c4c5ccc(O)c4O[C@H]2[C@@H](O)C=C[C@H]3[C@H]1C5 [morphine, morphine sulfate, reference compound] | – | – | significant CPP | – | – | – | – | – | antinociceptive ED50 (C57BL/6J wild-type mice [10]): 2.35 nmol
4 | Oc1ccc2c3c1O[C@H]1c4[nH]c5c(c4C[C@@]4(O)[C@@H](C2)N(CC2CC2)CC[C@]314)C[C@@]1(O)[C@H]2Cc3ccc(O)c4c3[C@@]1(CCN2CC1CC1)[C@H]5O4 [nor-BNI, nor‐binaltorphimine, reference compound] | – | – | – | – | – | – | – | completely blocks coupling | –
